From patent US9040545B2, “Heterocyclyl pyrazolopyrimidine analogues as selective JAK inhibitors” (Cellzome Limited, priority 2010, dated 2015) come the findings set out here.

One experiment concerns the target T1, Aurora A (Homo sapiens, UniProt O14965).
T1 construct: cell lysates from Jurkat cells (ATCC TIB-152) used; endogenous in cells; host or cells: Jurkat cells (ATCC TIB-152), treated with pervanadate
T1 sequence (O14965 1-403): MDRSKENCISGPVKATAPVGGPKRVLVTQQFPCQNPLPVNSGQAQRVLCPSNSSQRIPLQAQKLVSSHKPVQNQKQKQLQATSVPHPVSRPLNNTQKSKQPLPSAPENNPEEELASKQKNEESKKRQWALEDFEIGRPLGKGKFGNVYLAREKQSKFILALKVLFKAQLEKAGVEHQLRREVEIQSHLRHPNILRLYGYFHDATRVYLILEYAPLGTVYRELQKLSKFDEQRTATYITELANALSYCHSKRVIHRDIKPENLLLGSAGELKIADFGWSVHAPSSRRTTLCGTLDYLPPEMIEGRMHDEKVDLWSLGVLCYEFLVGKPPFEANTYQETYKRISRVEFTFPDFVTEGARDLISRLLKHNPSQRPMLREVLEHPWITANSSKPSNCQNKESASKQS
The experiment can be described thus: Kinobeads assay, Aurora A. It counts as binding. Conditions: for IC50: lysate of pervanadate-treated Jurkat cells, read-out: Inhibition values (IC50) Aur A. As to the method:
(§1) The compounds of the present invention as described in the previous examples were tested in a Kinobeads™ assay as described for ZAP-70 (WO-A 2007/137867). Briefly, test compounds (at various concentrations) and the affinity matrix with the immobilized aminopyrido-pyrimidine ligand 24 were added to cell lysate aliquots and allowed to bind to the proteins in the lysate sample. After the incubation time the beads with captured proteins were separated from the lysate. Bound proteins were then eluted and the presence of JAK2 and JAK3 was detected and quantified using specific antibodies in a dot blot procedure and the Odyssey infrared detection system. Dose response curves for individual kinases were generated and IC50 values calculated. Kinobeads™ assays for ZAP-70 (WO-A 2007/137867) and for kinase selectivity profiling (WO-A 2006/134056) have been previously described.
(§2) The affinity matrix was washed two times with 15 mL of 1×DP buffer containing 0.2% NP40 (IGEPAL® CA-630, Sigma, #I3021) and then resuspended in 1×DP buffer containing 0.2% NP40 (3% beads slurry).
(§3) 5×DP buffer 250 mM Tris-HCl pH 7.4, 25% Glycerol, 7.5 mM MgCl2, 750 mM NaCl, 5 mM Na3VO4; filter the 5×DP buffer through a 0.22 μm filter and store in aliquots at −80° C. The 5×DP buffer is diluted with H2O to 1×DP buffer containing 1 mM DTT and 25 mM NaF.
(§4) Stock solutions of test compounds were prepared in DMSO. In a 96 well plate 30 μL solution of diluted test compounds at 5 mM in DMSO were prepared. Starting with this solution a 1:3 dilution series (9 steps) was prepared. For control experiments (no test compound) a buffer containing 2% DMSO was used.
(§5) Cell lysate (approximately 50 mg protein per plate) was thawed in a water bath at room temperature and then stored on ice. To the thawed cell lysate 1×DP 0.8% NP40 buffer containing protease inhibitors (1 tablet for 25 mL buffer; EDTA-free protease inhibitor cocktail; Roche Diagnostics 1873580) was added in order to reach a final protein concentration of 10 mg/mL total protein. The diluted cell lysate was stored on ice. Mixed Molt4/Ramos lysate was prepared by combining one volume of Molt4 lysate and two volumes of Ramos lysate (ratio 1:2).
(§6) To a 96 well filter plate (Multiscreen HTS, BV Filter Plates, Millipore #MSBVN1250) were added per well: 100 μL affinity matrix (3% beads slurry), 3 μL of compound solution, and 50 μL of diluted lysate. Plates were sealed and incubated for 3 hours in a cold room on a plate shaker (Heidolph tiramax 1000) at 750 rpm. Afterwards the plate was washed 3 times with 230 μL washing buffer (1×DP 0.4% NP40). The filter plate was placed on top of a collection 1 plate (Greiner bio-one, PP-microplate 96 well V-shape, 65120) and the beads were then eluted with 20 μL of sample buffer (100 mM Tris, pH 7.4, 4% SDS, 0.00025% bromophenol blue, 20% glycerol, 50 mM DTT). The eluate was frozen quickly at −80° C. and stored at −20° C.
(§7) The kinases in the eluates were detected and quantified by spotting on nitrocellulose membranes and using a first antibody directed against the kinase of interest and a fluorescently labelled secondary antibody (anti-rabbit IRDye™ antibody 800 (Licor, #926-32211). The Odyssey Infrared Imaging system from LI-COR Biosciences (Lincoln, Nebr., USA) was operated according to instructions provided by the manufacturer (Schutz-Geschwendener et al, 2004. Quantitative, two-color Western blot detection with infrared fluorescence. Published May 2004 by LI-COR Biosciences, www.licor.com).
(§8) After spotting of the eluates the nitrocellulose membrane (BioTrace NT; PALL, #BTNT30R) was first blocked by incubation with Odyssey blocking buffer (LICOR, 927-40000) for 1 hour at room temperature. Blocked membranes were then incubated for 16 hours at the temperature shown in Table 5 with the first antibody diluted in Odyssey blocking buffer (LICOR #927-40000). Afterwards the membrane was washed twice for 10 minutes with PBS buffer containing 0.2% Tween 20 at room temperature. […]

In the next experiment the target is T2, Aurora B (Homo sapiens, UniProt Q96GD4).
T2 construct: cell lysates from Jurkat cells (ATCC TIB-152) used; endogenous in cells; host or cells: Jurkat cells (ATCC TIB-152), treated with pervanadate
T2 sequence (Q96GD4 whole entry): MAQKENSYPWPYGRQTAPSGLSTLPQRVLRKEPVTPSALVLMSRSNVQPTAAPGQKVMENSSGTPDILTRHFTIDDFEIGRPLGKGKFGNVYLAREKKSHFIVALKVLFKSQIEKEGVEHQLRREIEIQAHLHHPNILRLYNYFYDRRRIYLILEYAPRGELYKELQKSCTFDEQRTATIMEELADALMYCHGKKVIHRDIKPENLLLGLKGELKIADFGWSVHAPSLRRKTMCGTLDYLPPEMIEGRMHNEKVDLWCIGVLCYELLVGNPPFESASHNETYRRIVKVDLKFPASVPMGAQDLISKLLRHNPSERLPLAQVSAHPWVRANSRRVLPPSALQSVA
The experiment is described as follows: Kinobeads assay, Aurora B. It counts as binding. The conditions noted are these: for IC50: lysate of pervanadate-treated Jurkat cells, read-out: Inhibition values (IC50) Aur B. On the procedure:
as §1, §2, §3, §4, §5, §6, §7, §8

One may read the IC50 as the point on the concentration scale where inhibition reaches its midpoint.

SMILES strings stand for the structures.

Regarding `Cn1cc(Nc2ncc3cnn(Cc4cccc(N5CCOCC5)n4)c3n2)cn1` [Example 3, N-(1-Methyl-1H-pyrazol-4-yl)-1-((6-morpholinopyridin-2-yl)methyl)-1H-pyrazolo[3,4-d]pyrimidin-6-amine], on Aurora A, the “JAK3/AurA Fold Selectivity” value was 10-50 Fold and the half-inhibitory concentration (IC50) is 0.1 to 1 µM. In addition, on Aurora B, the “JAK3/AurB Fold Selectivity” value is 10-50 Fold and the half-inhibitory concentration (IC50) fell in the range of 0.1 to 1 µM.
In the case of `Cn1cc(Nc2ncc3cnn(Cc4cccc(N5CC6CCC(C5)O6)c4)c3n2)cn1` [Example 26], on Aurora A, the “JAK3/AurA Fold Selectivity” value is listed as 3-10 Fold and the concentration for half-maximal inhibition (IC50) fell in the range of 0.1 to 1 µM. Moreover, at Aurora B, the “JAK3/AurB Fold Selectivity” value is on record as 10-50 Fold and the IC50 lay in the range of 1 to 10 µM.
On to `O=C1COCCN1c1cc(F)cc(Cn2ncc3cnc(Nc4cnn(C5CCNCC5)c4)nc32)c1` [Example 102, 4-(3-fluoro-5-((6-((1-(piperidin-4-yl)-1H-pyrazol-4-yl)amino)-1H-pyrazolo[3,4-d]pyrimidin-1-yl)methyl)phenyl)morpholin-3-one], for which, on Aurora A, the “JAK3/AurA Fold Selectivity” value is listed as 10-50 Fold and the IC50 was less than 0.1 µM. On Aurora B, the “JAK3/AurB Fold Selectivity” value is on record as 10-50 Fold and the IC50 was 0.1 to 1 µM.
For `O=C1COCCN1c1cccc(Cn2ncc3cnc(Nc4cnn(CCO)c4)nc32)c1` [Example 29, 4-(3-((6-((1-(2-Hydroxyethyl)-1H-pyrazol-4-yl)amino)-1H-pyrazolo[3,4-d]pyrimidin-1-yl)methyl)phenyl)morpholin-3-one], at Aurora A, the “JAK3/AurA Fold Selectivity” value is listed as 3-10 Fold and the IC50 was in the range of 0.1 to 1 µM. Moreover, on Aurora B, the “JAK3/AurB Fold Selectivity” value is on record as 10-50 Fold and the IC50 was 0.1 to 1 µM.
`Cn1cc(Nc2ncc3cnn(Cc4cccc(N5CCN(S(C)(=O)=O)CC5)c4)c3n2)cn1` [Example 100, N-(1-methyl-1H-pyrazol-4-yl)-1-(3-(4-(methylsulfonyl)piperazin-1-yl)benzyl)-1H-pyrazolo[3,4-d]pyrimidin-6-amine]: at Aurora A, the “JAK3/AurA Fold Selectivity” value is 3-10 Fold and the IC50 lay within 0.1 to 1 µM. In addition, at Aurora B, the “JAK3/AurB Fold Selectivity” value is 10-50 Fold and the IC50 lay within 1 to 10 µM.
Take `Cn1cc(Nc2ncc3cnn(Cc4cccc(N5CCS(=O)(=O)CC5)c4)c3n2)cn1` [Example 25, 4-(3-((6-((1-Methyl-1H-pyrazol-4-yl)amino)-1H-pyrazolo[3,4-d]pyrimidin-1-yl)methyl)phenyl)thiomorpholine 1,1-dioxide]: on Aurora A, the “JAK3/AurA Fold Selectivity” value is reported as 10-50 Fold and the 50% inhibitory concentration (IC50) was 0.1 to 1 µM. At Aurora B, the “JAK3/AurB Fold Selectivity” value is reported as 10-50 Fold and the IC50 was 0.1 to 1 µM.
Take `Cn1cc(Nc2ncc3cnn(Cc4cccc(-c5cnn(CC(N)=O)c5)c4)c3n2)cn1` [Example 120, 2-(4-(3-((6-((1-methyl-1H-pyrazol-4-yl)amino)-1H-pyrazolo[3,4-d]pyrimidin-1-yl)methyl)phenyl)-1H-pyrazol-1-yl)acetamide]: on Aurora A, the “JAK3/AurA Fold Selectivity” value is recorded as 10-50 Fold and the IC50 was 0.1 to 1 µM. Besides, on Aurora B, the “JAK3/AurB Fold Selectivity” value is more than 50 Fold and the IC50 was in the range of 1 to 10 µM.
Consider `CCn1cc(-c2cccc(Cn3ncc4cnc(Nc5cnn(C)c5)nc43)c2)cn1` [Example 116, 1-(3-(1-ethyl-1H-pyrazol-4-yl)benzyl)-N-(1-methyl-1H-pyrazol-4-yl)-1H-pyrazolo[3,4-d]pyrimidin-6-amine], for which, on Aurora A, the “JAK3/AurA Fold Selectivity” value is given as 10-50 Fold and the half-maximal inhibitory concentration (IC50) lay in the range of 0.1 to 1 µM. At Aurora B, the “JAK3/AurB Fold Selectivity” value was more than 50 Fold and the IC50 fell in the range of 1 to 10 µM.
In the case of `Cn1cc(-c2cc(F)c(F)c(Cn3ncc4cnc(Nc5cnn(CCO)c5)nc43)c2)cn1` [Example 127, 2-(4-((1-(2,3-difluoro-5-(1-methyl-1H-pyrazol-4-yl)benzyl)-1H-pyrazolo[3,4-d]pyrimidin-6-yl)amino)-1H-pyrazol-1-yl)ethanol], on Aurora A, the “JAK3/AurA Fold Selectivity” value is reported as 10-50 Fold and the IC50 was 0.1 to 1 µM. In addition, at Aurora B, the “JAK3/AurB Fold Selectivity” value is reported as 10-50 Fold and the IC50 is 0.1 to 1 µM.
As to `Cn1cc(Nc2ncc3cnn(Cc4cc(N5CCOCC5)ccc4F)c3n2)cn1` [Example 15, 1-(2-Fluoro-5-morpholinobenzyl)-N-(1-methyl-1H-pyrazol-4-yl)-1H-pyrazolo[3,4-d]pyrimidin-6-amine], on Aurora A, the “JAK3/AurA Fold Selectivity” value is listed as 10-50 Fold and the IC50 fell in the range of 1 to 10 µM. At Aurora B, the “JAK3/AurB Fold Selectivity” value is given as 10-50 Fold and the IC50 lay within 1 to 10 µM.
With `O=C(CCn1cc(Nc2ncc3cnn(Cc4cccc(N5CCOCC5)c4)c3n2)cn1)NC1CC1` [Example 35, N-Cyclopropyl-3-(4-((1-(3-morpholinobenzyl)-1H-pyrazolo[3,4-d]pyrimidin-6-yl)amino)-1H-pyrazol-1-yl)propanamide], on Aurora A, the “JAK3/AurA Fold Selectivity” value is recorded as 10-50 Fold and the IC50 was 0.1 to 1 µM. At Aurora B, the “JAK3/AurB Fold Selectivity” value was 10-50 Fold and the IC50 is 1 to 10 µM.
For `Cn1cc(Nc2ncc3cnn(Cc4cccc(CN5CCOCC5)c4)c3n2)cn1` [Example 7, N-(1-Methyl-1H-pyrazol-4-yl)-1-(3-(morpholinomethyl)benzyl)-1H-pyrazolo[3,4-d]pyrimidin-6-amine], on Aurora A, the “JAK3/AurA Fold Selectivity” value was 10-50 Fold and the half-maximal inhibitory concentration (IC50) was 0.1 to 1 µM. On Aurora B, the “JAK3/AurB Fold Selectivity” value is given as 10-50 Fold and the IC50 lay within 0.1 to 1 µM.
For the molecule `CN(C)CC1(Cn2cc(Nc3ncc4cnn(Cc5cccc(N6CCOCC6)c5)c4n3)cn2)COC1` [Example 31, N-(1-((3-((Dimethylamino)methyl)oxetan-3-yl)methyl)-1H-pyrazol-4-yl)-1-(3-morpholinobenzyl)-1H-pyrazolo[3,4-d]pyrimidin-6-amine], on Aurora A, the “JAK3/AurA Fold Selectivity” value is 3-10 Fold and the IC50 lay in the range of 0.1 to 1 µM. On Aurora B, the “JAK3/AurB Fold Selectivity” value is more than 50 Fold and the IC50 lay in the range of 1 to 10 µM.
Turning to `CN(C)CCCn1cc(Nc2ncc3cnn(Cc4cccc(N5CCOCC5=O)c4)c3n2)cn1` [Example 28, 4-(3-((6-((1-(3-(Dimethylamino)propyl)-1H-pyrazol-4-yl)amino)-1H-pyrazolo[3,4-d]pyrimidin-1-yl)methyl)phenyl)morpholin-3-one], at Aurora A, the “JAK3/AurA Fold Selectivity” value is given as more than 50 Fold and the IC50 lay within 0.1 to 1 µM. Moreover, at Aurora B, the “JAK3/AurB Fold Selectivity” value is recorded as more than 50 Fold and the IC50 is 0.1 to 1 µM.
For the molecule `Cn1cc(Nc2ncc3cnn(Cc4cc(F)cc(N5CC6(COC6)C5)c4)c3n2)cn1` [Example 90, 1-(3-fluoro-5-(2-oxa-6-azaspiro[3.3]heptan-6-yl)benzyl)-N-(1-methyl-1H-pyrazol-4-yl)-1H-pyrazolo[3,4-d]pyrimidin-6-amine], on Aurora A, the “JAK3/AurA Fold Selectivity” value was 10-50 Fold and the half-inhibitory concentration (IC50) was not below 10 µM. Also, on Aurora B, the “JAK3/AurB Fold Selectivity” value was more than 50 Fold and the IC50 lay within 1 to 10 µM.
